Reference: US20060069132A1, “Azolecarboxamide herbicides” (priority 2004, published 2006)

Key:
[1] = test system: lambsquarters; assay: Test B pre-/postemergence herbicide test; assay type: in vivo, Chenopodium album; conditions: for Lambsquarters plant response rating: postemergence
Outline: (§1)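 Seeds were planted and treated preemergence with compounds formulated in a non-phytotoxic solvent mixture containing surfactant, while plants at the 1- to 4-leaf stage (2 to 18 cm) received postemergence sprays. Flooded paddy plants were grown to the 2-leaf stage. After 13 to 15 days in a greenhouse, injury was visually rated 0–100 against untreated controls.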

[2] = test system: giant foxtail; assay: Test A pre-/postemergence herbicide test; assay type: in vivo, Setaria faberi
Outline: (§2)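 Plants are held in greenhouse about ten days after treatment, then compared with untreated controls and scored 0 (no effect) to 100 (complete control). Preemergence dosing is a directed soil spray on sown sandy loam; postemergence dosing is spray to runoff at 2–10 cm height.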

[3] = test system: barnyardgrass; assay: Test A pre-/postemergence herbicide test; assay type: in vivo, Echinochloa crus-galli
Outline: as §2

[4] = test system: cocklebur; assay: Test B pre-/postemergence herbicide test; assay type: in vivo, Xanthium strumarium; conditions: for Cocklebur plant response rating: postemergence
Outline: (§3)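 Flooded paddy rice and barnyardgrass were treated at the 2-leaf stage; upland plantings received compound either on sown seed or on 1- to 4-leaf seedlings. All were kept 13–15 days in a greenhouse and scored visually, 0–100, relative to untreated plants.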

[5] = test system: velvetleaf; assay: Test B pre-/postemergence herbicide test; assay type: in vivo, Abutilon theophrasti; conditions: 100 is complete control
Outline: as §1

[6] = test system: rice; assay: Test B flooded paddy test; assay type: in vivo, Oryza sativa; conditions: 1000 g ai/ha, scale 0 to 100 (0 no effect, 100 complete control)
Outline: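 Visual ratings, 0 (no effect) to 100 (complete control), made versus controls after 13–15 d greenhouse. Paddy plants treated at 2-leaf stage; postemergence plants at 1- to 4-leaf stage, 2–18 cm tall.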

[7] = test system: barnyardgrass; assay: Test B pre-/postemergence herbicide test; assay type: in vivo, Echinochloa crus-galli; conditions: for Barnyardgrass plant response rating: postemergence
Outline: as §3

[8] = test system: large crabgrass; assay: Test B pre-/postemergence herbicide test; assay type: in vivo, Digitaria sanguinalis; conditions: for Crabgrass, Large plant response rating: postemergence
Outline: as §1

[9] = test system: morningglory; assay: Test A pre-/postemergence herbicide test; assay type: in vivo, Ipomoea spp.
Outline: as §2

[10] = test system: corn; assay: Test B pre-/postemergence herbicide test; assay type: in vivo, Zea mays; conditions: for Corn plant response rating: postemergence
Outline: as §1

[11] = test system: ducksalad; assay: Test B flooded paddy test; assay type: in vivo, Heteranthera limosa; conditions: 1000 g ai/ha, scale 0 to 100 (0 no effect, 100 complete control)
Outline: (§4)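 After treating 2-leaf paddy plants or 2–18 cm postemergence plants (1 to 4 leaves) with formulated chemical, researchers kept them in a greenhouse for 13–15 days. Effects were judged visually versus controls: 0 indicates none, 100 total control.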

[12] = test system: morningglory; assay: Test B pre-/postemergence herbicide test; assay type: in vivo, Ipomoea coccinea; conditions: for Morningglory plant response rating: postemergence
Outline: as §3

[13] = test system: small flower umbrella sedge; assay: Test B flooded paddy test; assay type: in vivo, Cyperus difformis; conditions: 1000 g ai/ha, scale 0 to 100 (0 no effect, 100 complete control)
Outline: as §4

[14] = test system: pigweed; assay: Test B pre-/postemergence herbicide test; assay type: in vivo, Amaranthus retroflexus; conditions: for Pigweed plant response rating: postemergence
Outline: as §1

[15] = test system: wild oat; assay: Test B postemergence herbicide test; assay type: in vivo, Avena fatua; conditions: postemergence
Outline: as §4

[16] = test system: Surinam grass; assay: Test B pre-/postemergence herbicide test; assay type: in vivo, Urochloa decumbens; conditions: for Surinam Grass plant response rating: postemergence
Outline: as §1

[17] = test system: blackgrass; assay: Test B postemergence herbicide test; assay type: in vivo, Alopecurus myosuroides; conditions: postemergence
Outline: as §4

[18] = test system: redroot pigweed; assay: Test A pre-/postemergence herbicide test; assay type: in vivo, Amaranthus retroflexus
Outline: as §2

[19] = test system: large crabgrass; assay: Test A pre-/postemergence herbicide test; assay type: in vivo, Digitaria sanguinalis
Outline: as §2

[20] = test system: giant foxtail; assay: Test B pre-/postemergence herbicide test; assay type: in vivo, Setaria faberi; conditions: for Foxtail, Giant plant response rating: postemergence
Outline: as §1

[21] = test system: velvetleaf; assay: Test A pre-/postemergence herbicide test; assay type: in vivo, Abutilon theophrasti
Outline: as §2

[22] = test system: wheat; assay: Test B postemergence herbicide test; assay type: in vivo, Triticum aestivum; set-up: key to Wheat plant response rating: 0 = no effect, 100 = complete control; conditions: postemergence
Outline: as §4

[23] = test system: barnyardgrass; assay: Test B flooded paddy test; assay type: in vivo, Echinochloa crus-galli; conditions: 1000 g ai/ha, scale 0 to 100 (0 no effect, 100 complete control)
Outline: as §4

[24] = 125 g ai/ha, visual rating, scale 0 (no effect) to 100 (complete control)
[25] = 500 g ai/ha, visual rating, 0 = no effect, 100 = complete control, preemergence
[26] = 500 g ai/ha, scale 0 to 100, 0 is no effect, 100 is complete control
[27] = Postemergence, 500 g ai/ha, 0 to 100 scale, 0 no effect, 100 complete control
[28] = Postemergence, 2000 g ai/ha, 0 to 100 scale, 0 no effect, 100 complete control
[29] = Preemergence, 2000 g ai/ha, visual rating, 0 to 100 scale (0 no effect, 100 complete control)
[30] = preemergence, 500 g ai/ha, visual injury, 0 to 100 scale (0 no effect, 100 complete control)
[31] = 125 g ai/ha, 0 is no effect, 100 is complete control, preemergence

CCc1nn(C2CCCC2)nc1C(=O)Nc1cccc(C(=O)N2CC=CC2)c1 [Compound 354]
Lambsquarters plant response rating [1, 24]: 10
Plant response rating, Lambsquarters [1, 25]: 100
Lambsquarters plant response rating [1, 26]: 50
Foxtail, Giant plant response rating [2, 27]: 10
Plant response rating, Foxtail, Giant [2, 28]: 50
Foxtail, Giant plant response rating [2, 29]: 80
Foxtail, Giant plant response rating [2, 30]: 15
Barnyardgrass plant response rating [3, 27]: 20
Plant response rating, Barnyardgrass [3, 28]: 70
Barnyardgrass plant response rating [3, 29]: 55
Barnyardgrass plant response rating [3, 30]: 0
Plant response rating (0 to 100 scale), Cocklebur [4, 31]: 0
Cocklebur plant response rating [4, 24]: 10
Plant response rating, Cocklebur [4, 25]: 0
Cocklebur plant response rating [4, 26]: 20
Plant response rating (0 to 100 scale), Velvetleaf ([5]; 125 g ai/ha, 0 is no effect, preemergence): 0
Velvetleaf plant response rating ([5]; postemergence, 500 g ai/ha, scale 0 to 100, 0 is no effect): 10
Rice plant response rating [6]: 50
Plant response rating (0 to 100 scale), Barnyardgrass [7, 31]: 0
Barnyardgrass plant response rating [7, 24]: 0
Plant response rating, Barnyardgrass [7, 25]: 60
Barnyardgrass plant response rating [7, 26]: 0
Plant response rating (0 to 100 scale), Crabgrass, Large [8, 31]: 20
Crabgrass, Large plant response rating [8, 24]: 0
Plant response rating, Crabgrass, Large [8, 25]: 80
Crabgrass, Large plant response rating [8, 26]: 10
Morningglory plant response rating [9, 27]: 20
Plant response rating, Morningglory [9, 28]: 85
Morningglory plant response rating [9, 29]: 20
Morningglory plant response rating [9, 30]: 15
Plant response rating (0 to 100 scale), Corn [10, 31]: 20
Corn plant response rating [10, 24]: 0
Plant response rating, Corn [10, 25]: 20
Corn plant response rating [10, 26]: 0
Ducksalad plant response rating [11]: 50
Plant response rating (0 to 100 scale), Morningglory [12, 31]: 0
Morningglory plant response rating [12, 24]: 30
Plant response rating, Morningglory [12, 25]: 0
Morningglory plant response rating [12, 26]: 60
Sedge, Umbrella plant response rating [13]: 50
Plant response rating (0 to 100 scale), Pigweed [14, 31]: 0
Pigweed plant response rating [14, 24]: 40
Plant response rating, Pigweed [14, 25]: 90
Pigweed plant response rating [14, 26]: 50
Oat, Wild plant response rating [15, 24]: 0
Oat, Wild plant response rating [15, 26]: 20
Plant response rating (0 to 100 scale), Surinam Grass [16, 31]: 0
Surinam Grass plant response rating [16, 24]: 0
Plant response rating, Surinam Grass [16, 25]: 20
Surinam Grass plant response rating [16, 26]: 20
Blackgrass plant response rating [17, 24]: 10
Blackgrass plant response rating [17, 26]: 20
Pigweed plant response rating [18, 27]: 70
Plant response rating, Pigweed [18, 28]: 80
Pigweed plant response rating [18, 29]: 70
Pigweed plant response rating [18, 30]: 60
Crabgrass, Large plant response rating [19, 27]: 10
Plant response rating, Crabgrass, Large [19, 28]: 20
Crabgrass, Large plant response rating [19, 29]: 20
Crabgrass, Large plant response rating [19, 30]: 10
Plant response rating (0 to 100 scale), Foxtail, Giant [20, 31]: 10
Foxtail, Giant plant response rating [20, 24]: 10
Plant response rating, Foxtail, Giant [20, 25]: 70
Foxtail, Giant plant response rating [20, 26]: 20
Velvetleaf plant response rating [21, 27]: 50
Plant response rating, Velvetleaf [21, 28]: 70
Velvetleaf plant response rating [21, 29]: 45
Velvetleaf plant response rating [21, 30]: 5
Wheat plant response rating [22, 24]: 0
Wheat plant response rating [22, 26]: 20
Barnyardgrass plant response rating [23]: 40
